The structures appear in SMILES notation.

For this assay, the target named is T1, KATP channels (Homo sapiens, UniProt O60706+Q14654).
T1 construct: TE671 human medulloblastoma cells were obtained from ATCC; host or cells: TE671 human medulloblastoma cells
T1 sequence (Q14654 whole entry): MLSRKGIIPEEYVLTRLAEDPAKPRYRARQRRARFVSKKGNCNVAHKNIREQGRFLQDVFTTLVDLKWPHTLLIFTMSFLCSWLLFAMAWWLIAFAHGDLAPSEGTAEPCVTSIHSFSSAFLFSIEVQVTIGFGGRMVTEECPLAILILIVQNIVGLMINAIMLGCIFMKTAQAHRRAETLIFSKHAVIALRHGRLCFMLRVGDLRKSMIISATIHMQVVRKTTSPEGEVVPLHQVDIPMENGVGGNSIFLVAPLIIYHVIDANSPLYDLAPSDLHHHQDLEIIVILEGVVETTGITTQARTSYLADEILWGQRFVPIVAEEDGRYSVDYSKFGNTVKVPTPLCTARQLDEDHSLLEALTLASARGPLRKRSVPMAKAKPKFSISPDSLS
T1 sequence (O60706 1-1549 isoform O60706-2): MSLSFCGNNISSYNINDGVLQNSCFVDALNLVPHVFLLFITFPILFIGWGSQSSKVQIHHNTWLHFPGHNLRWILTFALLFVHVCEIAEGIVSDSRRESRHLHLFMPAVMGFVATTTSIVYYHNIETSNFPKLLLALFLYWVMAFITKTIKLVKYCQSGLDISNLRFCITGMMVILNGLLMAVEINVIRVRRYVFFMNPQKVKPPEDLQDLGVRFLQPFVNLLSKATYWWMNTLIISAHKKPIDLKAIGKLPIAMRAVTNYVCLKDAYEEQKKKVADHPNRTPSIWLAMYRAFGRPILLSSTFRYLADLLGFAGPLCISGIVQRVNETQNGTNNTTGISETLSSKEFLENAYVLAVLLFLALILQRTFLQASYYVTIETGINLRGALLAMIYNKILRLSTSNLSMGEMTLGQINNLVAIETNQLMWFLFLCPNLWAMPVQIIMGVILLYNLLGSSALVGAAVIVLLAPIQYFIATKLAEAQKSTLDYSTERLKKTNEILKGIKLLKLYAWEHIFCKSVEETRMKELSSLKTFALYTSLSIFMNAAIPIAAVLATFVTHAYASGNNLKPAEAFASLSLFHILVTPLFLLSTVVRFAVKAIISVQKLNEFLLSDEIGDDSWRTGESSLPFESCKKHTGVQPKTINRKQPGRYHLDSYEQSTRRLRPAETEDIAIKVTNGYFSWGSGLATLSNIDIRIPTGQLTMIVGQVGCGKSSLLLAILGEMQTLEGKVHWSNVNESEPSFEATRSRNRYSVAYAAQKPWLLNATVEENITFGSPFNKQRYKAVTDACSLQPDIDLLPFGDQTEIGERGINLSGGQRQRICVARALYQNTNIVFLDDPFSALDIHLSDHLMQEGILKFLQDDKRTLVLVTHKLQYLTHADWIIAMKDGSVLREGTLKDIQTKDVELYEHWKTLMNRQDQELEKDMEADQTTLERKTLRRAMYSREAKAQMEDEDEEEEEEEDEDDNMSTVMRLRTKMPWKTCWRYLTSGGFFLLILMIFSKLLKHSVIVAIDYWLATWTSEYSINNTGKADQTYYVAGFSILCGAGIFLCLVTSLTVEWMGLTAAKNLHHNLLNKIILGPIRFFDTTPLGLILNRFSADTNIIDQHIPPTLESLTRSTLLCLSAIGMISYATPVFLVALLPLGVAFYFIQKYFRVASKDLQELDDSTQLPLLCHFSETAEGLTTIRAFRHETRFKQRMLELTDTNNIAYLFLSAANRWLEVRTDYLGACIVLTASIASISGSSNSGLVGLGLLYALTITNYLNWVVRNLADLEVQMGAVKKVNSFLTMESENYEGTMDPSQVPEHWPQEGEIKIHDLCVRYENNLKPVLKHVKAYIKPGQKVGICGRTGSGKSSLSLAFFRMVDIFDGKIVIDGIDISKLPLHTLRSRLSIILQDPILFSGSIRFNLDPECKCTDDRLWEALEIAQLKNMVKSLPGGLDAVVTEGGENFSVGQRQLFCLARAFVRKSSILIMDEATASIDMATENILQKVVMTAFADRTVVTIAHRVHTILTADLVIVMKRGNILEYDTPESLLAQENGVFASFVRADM
Description: Potassium Channel Assay (FLIPR membrane potential dye, TE671 cells). The format is cell-based. Conditions: TE671 human medulloblastoma cells, room temperature, fluorescence change monitored for 3 minutes. The method, then:
TE671 human medulloblastoma cells were obtained from ATCC and grown in Dulbecco's modified Eagle's medium (DMEM) supplemented with 10% fetal bovine serum, 100 U/ml penicillin and 100 U/ml streptomycine.
The day before testing, the cells were plated in black 96-well plates at 50K/well. On the day of testing, the growth media was removed, then 100 μl of FLIPR buffer (20 mM HEPES, 120 mM NaCl, 2 mM KCl, 2 mM CaCl2, 1 mM MgCl2, 5 mM Glucose) and 100 μl of Membrane Potential Assay Dye (Molecular Devices) dissolved in FLIPR buffer were added to each well. The cells were incubated at room temperature for 15 to 30 min.
The effect of test compounds on KATP channels were evaluated on a fluorometric imaging plate reader (FLIPR, Molecular Devices) at room temperature. After a baseline period, 50 μl of 5× stock solution of test compound prepared in FLIPR buffer was added and fluorescence change was monitored for 3 minutes. After this reading, glyburide, a KATP channel blocker, was added to a final concentration of 5 μM to check the specificity of the test compound as a KATP channel opener. Hyperpolarization resulting from KATP channel opening was observed as a decrease in fluorescence intensity.
Representative compounds of the present invention were tested according to the procedure described above, with results as listed in Table 7 below.
`CN(C)c1ccc(C(O)c2cnccc2C(=O)c2ccccc2)cc1` (stereo not shown) [Compound 44, {3-[(4-Dimethylamino-phenyl)-hydroxy-methyl]-pyridin-4-yl}-phenyl-methanone]: the EC50 (commonly the concentration that produces a half-maximal response) turned out to be 17.4 µM. This counts as double-digit micromolar. Same read-out and setting: next, `COc1ccc(C(O)c2cnccc2C(=O)c2ccccc2)cc1F` (stereo not shown) [Compound 45, {3-[(3-Fluoro-4-methoxy-phenyl)-hydroxy-methyl]-pyridin-4-yl}-phenyl-methanone]: 11.6 µM.

For `COc1ccc(OC)c(C(O)c2cnccc2C(=O)c2ccccc2)c1` (stereo not shown) [Compound 46, {3-[(2,5-Dimethoxy-phenyl)-hydroxy-methyl]-pyridin-4-yl}-phenyl-methanone], the EC50 amounted to 12.1 µM.

The compound `O=C(c1ccccc1)c1ccncc1C(O)c1cccc(F)c1` (stereo not shown) [Compound 47, {3-[(3-Fluoro-phenyl)-hydroxy-methyl]-pyridin-4-yl}-phenyl-methanone] yielded an EC50 of 5.09 µM. Same read-out and setting: next, `N#Cc1cccc(C(=O)c2ccncc2C(O)c2ccccc2)c1` (stereo not shown) [Compound 48, 3-[3-(Hydroxy-phenyl-methyl)-pyridine-4-carbonyl]-benzonitrile]: 14.3 µM. `N#Cc1cccc(-c2ccncc2CO)c1` [Compound 50, 3-(3-Hydroxymethyl-pyridin-4-yl)-benzonitrile]: the “% Stimulation” value is given as 19% and the EC50 was above 30 µM.

Turning to `N#Cc1cccc(-c2ccncc2C=O)c1` [Compound 51, 3-(3-Formyl-pyridin-4-yl)-benzonitrile], the “% Stimulation” value is listed as 48% and the EC50 is above 30 µM. The compound `CC(O)c1cnccc1-c1cccc(C#N)c1` (stereo not shown) [Compound 52, 3-[3-(1-Hydroxy-ethyl)-pyridin-4-yl]-benzonitrile] yielded an EC50 of 17.2 µM. `COc1ccc(C=O)cc1-c1ccncc1C=O` [Compound 53, 4-(5-Formyl-2-methoxy-phenyl)-pyridine-3-carbaldehyde]: the “% Stimulation” value is 30% and the EC50 was above 30 µM. In the same order, the values of `N#Cc1cccc(C2OC(O)c3cnccc32)c1` (stereo not shown) [Compound 55, 3-(3-Hydroxy-1,3-dihydro-furor[3,4-c]pyridin-1-yl)-benzonitrile] are 24% and above 30 µM.

In the case of `OCc1cnccc1C(O)c1ccccc1` (stereo not shown) [Compound 56, (3-Hydroxymethyl-pyridin-4-yl)-phenyl-methanol], the “% Stimulation” value is reported as 33% and the EC50 was above 30 µM.

`N#Cc1cccc(C(O)c2ccncc2CO)c1` (stereo not shown) [Compound 57, 3-[Hydroxy-(3-hydroxymethyl-pyridin-4-yl)-methyl]-benzonitrile]: the “% Stimulation” value came to 16% and the EC50 was above 30 µM. In the same order, the values of `COc1ccc(CO)cc1-c1ccncc1CO` [Compound 58] are 14% and above 30 µM. Take `CC(O)c1cnccc1C(=O)c1ccccc1` (stereo not shown) [Compound 59, [3-(1-Hydroxy-ethyl)-pyridin-4-yl]-phenyl-methanone]: it took 26.8 µM to reach a half-maximal effect (EC50). The compound `CC(C)C(O)c1cnccc1Br` (stereo not shown) [Compound 63, 1-(4-Bromo-pyridin-3-yl)-2-methyl-propan-1-ol] gave an EC50 of 7.97 µM. This EC50 is about 3.4-fold lower than that of the compound before. Take `OC1OC(c2ccccc2)c2ccncc21` (stereo not shown) [Compound 65, 1-Phenyl-1,3-dihydro-furo[3,4-c]pyridin-3-ol]: the “% Stimulation” value amounted to 34% and the EC50 was above 30 µM. Compound `N#Cc1cccc(C2OCc3cnccc32)c1` (stereo not shown) [Compound 66, 3-(1,3-Dihydro-furor[3,4-c]pyridin-1-yl)-benzonitrile] returned an EC50 of 8.19 µM. This counts as single-digit micromolar.

The record behind these values is patent US7671065B2, “Pyridine derivatives as potassium ion channel openers” (Janssen Pharmaceutica N.V., priority 2005, dated 2010).
